Reference: patent US10399940B2, “Substituted pyrrolidines and methods of use” (AbbVie S.à.r.l., priority 2016, dated 2019)
Where two headings read alike, the source gives them in different places.

Target: T1, F508delCFTR (Homo sapiens, UniProt P13569, DEL508-508)
T1 construct: expressed in transfected cells; host or cells: CFBE41o- (human lung derived epithelial cell line), doxycycline-inducible expression
Test: Cell Surface Expression-Horse Radish Peroxidase (CSE-HRP) assay
Type: cell-based
Conditions: CFBE41o-F508delCFTR-HRP cells; for Maximum % activity (with co-corrector): with co-corrector (2 μM); for Maximum % activity (with co-corrector) / Maximum % activity (without co-corrector): normalized to on-plate positive control, highest concentration 20 μM
Procedure, shortened: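 Surface F508delCFTR-HRP was read by luminol luminescence after 18–24 h compound exposure at 33 °C, without or with 2 μM co-corrector. Doses were eight 3-fold steps from 20 μM, in doxycycline-induced (0.5 μg/mL, 72 h) CFBE41o- cells. % activity was scaled to the on-plate 2 μM positive control minus DMSO; EC50 came from a variable-slope sigmoid fit.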

[1] = test compound without co-corrector, 18-24 hours at 33° C., read-out: EC50 (without co-corrector)
[2] = with co-corrector (2 μM of 3-[(2R,4R)-4-({[1-(2,2-difluoro-1,3-benzodioxol-5-yl)cyclopropyl]carbonyl}amino)-7-methoxy-3,4-dihydro-2H-chromen-2-yl]benzoic acid), read-out: EC50 (with co-corrector)

T1 sequence (P13569 with tags, fused parts or gaps DEL508-508): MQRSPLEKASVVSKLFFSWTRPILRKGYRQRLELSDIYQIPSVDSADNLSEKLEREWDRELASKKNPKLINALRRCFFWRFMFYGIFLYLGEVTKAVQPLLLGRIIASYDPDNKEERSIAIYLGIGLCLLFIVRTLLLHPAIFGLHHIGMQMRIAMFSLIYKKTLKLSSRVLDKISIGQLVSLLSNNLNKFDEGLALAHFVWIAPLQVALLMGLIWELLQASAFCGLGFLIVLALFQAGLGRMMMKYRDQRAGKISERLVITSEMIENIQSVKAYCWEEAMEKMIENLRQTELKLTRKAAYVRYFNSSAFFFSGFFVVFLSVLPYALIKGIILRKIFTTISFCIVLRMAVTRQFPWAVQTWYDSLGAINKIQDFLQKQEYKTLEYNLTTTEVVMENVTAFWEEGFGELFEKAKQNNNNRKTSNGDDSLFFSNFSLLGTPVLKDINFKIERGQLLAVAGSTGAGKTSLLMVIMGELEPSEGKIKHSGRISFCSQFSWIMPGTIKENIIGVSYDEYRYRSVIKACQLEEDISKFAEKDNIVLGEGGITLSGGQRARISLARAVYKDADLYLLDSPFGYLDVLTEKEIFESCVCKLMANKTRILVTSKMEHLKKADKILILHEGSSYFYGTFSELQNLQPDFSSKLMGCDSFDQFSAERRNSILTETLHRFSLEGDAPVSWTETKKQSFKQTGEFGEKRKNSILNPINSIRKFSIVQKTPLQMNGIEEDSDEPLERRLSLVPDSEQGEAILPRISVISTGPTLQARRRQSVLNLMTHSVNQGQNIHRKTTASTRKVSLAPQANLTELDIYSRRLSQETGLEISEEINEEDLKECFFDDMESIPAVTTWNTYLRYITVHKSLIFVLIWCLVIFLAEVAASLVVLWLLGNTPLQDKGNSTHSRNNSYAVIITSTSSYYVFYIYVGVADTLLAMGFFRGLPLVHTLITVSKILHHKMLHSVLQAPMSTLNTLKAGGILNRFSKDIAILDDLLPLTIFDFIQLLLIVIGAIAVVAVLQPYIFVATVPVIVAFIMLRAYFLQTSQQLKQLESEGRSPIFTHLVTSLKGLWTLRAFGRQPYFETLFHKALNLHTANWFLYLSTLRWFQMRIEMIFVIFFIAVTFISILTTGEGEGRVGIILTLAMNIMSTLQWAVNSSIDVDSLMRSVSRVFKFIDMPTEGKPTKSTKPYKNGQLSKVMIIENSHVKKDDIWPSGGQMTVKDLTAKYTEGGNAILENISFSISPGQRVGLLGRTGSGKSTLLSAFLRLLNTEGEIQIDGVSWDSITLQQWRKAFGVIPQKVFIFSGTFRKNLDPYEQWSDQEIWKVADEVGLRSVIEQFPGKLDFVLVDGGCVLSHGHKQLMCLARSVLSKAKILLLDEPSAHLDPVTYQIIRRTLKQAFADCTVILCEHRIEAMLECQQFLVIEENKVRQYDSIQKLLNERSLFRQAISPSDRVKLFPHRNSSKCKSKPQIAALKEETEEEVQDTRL

| Structure (SMILES) | EC50 [1] [nM] | EC50 [2] [nM] | Maximum % activity (with co-corrector) | Maximum % activity (without co-corrector) |
| --- | --- | --- | --- | --- |
| COc1ccc(C(F)(F)F)cc1CO[C@H]1[C@H](C(C)(C)C)[C@@H](C(=O)O)N(C(=O)C2CCCCC2)[C@H]1c1ccccc1F [Example 49, (2S,3R,4S,5S)-3-tert-butyl-1-(cyclohexanecarbonyl)-5-(2-fluorophenyl)-4-{[2-methoxy-5-(trifluoromethyl)phenyl]methoxy}pyrrolidine-2-carboxylic acid] | 1000 to 10000 | 1000 to 10000 | +++ (≥350) | ++ (≥100 and <200) |
| COc1ccc(C(C)(C)C)cc1CO[C@H]1[C@H](C(C)(C)C)[C@@H](C(=O)O)N(C(=O)C2CCCCC2)[C@H]1c1ccccc1F [Example 50, (2S,3R,4S,5S)-3-tert-butyl-4-[(5-tert-butyl-2-methoxyphenyl)methoxy]-1-(cyclohexanecarbonyl)-5-(2-fluorophenyl)pyrrolidine-2-carboxylic acid] | < 1000 | < 1000 | +++ (≥350) | +++ (≥200) |
| COc1ncc(Br)cc1CO[C@H]1[C@H](C(C)(C)C)[C@@H](C(=O)O)N(C(=O)C2CCCCC2)[C@H]1c1ccccc1F [Example 51, (2S,3R,4S,5S)-4-[(5-bromo-2-methoxypyridin-3-yl)methoxy]-3-tert-butyl-1-(cyclohexanecarbonyl)-5-(2-fluorophenyl)pyrrolidine-2-carboxylic acid] | 1000 to 10000 | 1000 to 10000 | +++ (≥350) | ++ (≥100 and <200) |
| COc1ncc(-c2ccccc2)cc1CO[C@H]1[C@H](C(C)(C)C)[C@@H](C(=O)O)N(C(=O)C2CCCCC2)[C@H]1c1ccccc1F [Example 52, (2S,3R,4S,5S)-3-tert-butyl-1-(cyclohexanecarbonyl)-5-(2-fluorophenyl)-4-[(2-methoxy-5-phenylpyridin-3-yl)methoxy]pyrrolidine-2-carboxylic acid] | 1000 to 10000 | 1000 to 10000 | +++ (≥350) | + (<100) |
| COc1ncc(C2CCC2)cc1CO[C@H]1[C@H](C(C)(C)C)[C@@H](C(=O)O)N(C(=O)C2CCCCC2)[C@H]1c1ccccc1F [Example 56, (2S,3R,4S,5S)-3-tert-butyl-4-[(5-cyclobutyl-2-methoxypyridin-3-yl)methoxy]-1-(cyclohexanecarbonyl)-5-(2-fluorophenyl)pyrrolidine-2-carboxylic acid] | < 1000 | < 1000 | +++ (≥350) | ++ (≥100 and <200) |
| COc1ncc(C2CCCC2)cc1CO[C@H]1[C@H](C(C)(C)C)[C@@H](C(=O)O)N(C(=O)C2CCCCC2)[C@H]1c1ccccc1F [Example 57, (2S,3R,4S,5S)-3-tert-butyl-1-(cyclohexanecarbonyl)-4-[(5-cyclopentyl-2-methoxypyridin-3-yl)methoxy]-5-(2-fluorophenyl)pyrrolidine-2-carboxylic acid] | 1000 to 10000 | 1000 to 10000 | +++ (≥350) | ++ (≥100 and <200) |
| COc1ncc(C2CC3CCC2C3)cc1CO[C@H]1[C@H](C(C)(C)C)[C@@H](C(=O)O)N(C(=O)C2CCCCC2)[C@H]1c1ccccc1F (stereo partly drawn) [Example 58, (2S,3R,4S,5S)-4-{[5-(bicyclo[2.2.1]heptan-2-yl)-2-methoxypyridin-3-yl]methoxy}-3-tert-butyl-1-(cyclohexanecarbonyl)-5-(2-fluorophenyl)pyrrolidine-2-carboxylic acid] | < 1000 | < 1000 | +++ (≥350) | ++ (≥100 and <200) |
| COc1ncc(N2CCCC2)cc1CO[C@H]1[C@H](C(C)(C)C)[C@@H](C(=O)O)N(C(=O)C2CCCCC2)[C@H]1c1ccccc1F [Example 59, (2S,3R,4S,5S)-3-tert-butyl-1-(cyclohexanecarbonyl)-5-(2-fluorophenyl)-4-{[2-methoxy-5-(pyrrolidin-1-yl)pyridin-3-yl]methoxy}pyrrolidine-2-carboxylic acid] | 1000 to 10000 | 1000 to 10000 | ++ (≥150 and <350) | + (<100) |

Continued, values first:

| EC50 [1] [nM] | EC50 [2] [nM] | Maximum % activity (with co-corrector) | Maximum % activity (without co-corrector) | Structure (SMILES) |
| --- | --- | --- | --- | --- |
| < 1000 | < 1000 | +++ (≥350) | ++ (≥100 and <200) | COc1ncc(C2CCC2)cc1CO[C@H]1[C@H](C(C)(C)C)[C@@H](C(=O)O)N(C(=O)C2CCCCC2)[C@H]1c1ccccc1 [Example 53, (2S,3R,4S,5S)-3-tert-butyl-4-[(5-cyclobutyl-2-methoxypyridin-3-yl)methoxy]-1-(cyclohexanecarbonyl)-5-phenylpyrrolidine-2-carboxylic acid] |
| < 1000 | < 1000 | +++ (≥350) | ++ (≥100 and <200) | COc1ncc(C2CCCC2)cc1CO[C@H]1[C@H](C(C)(C)C)[C@@H](C(=O)O)N(C(=O)C2CCCCC2)[C@H]1c1ccccc1 [Example 54, (2S,3R,4S,5S)-3-tert-butyl-1-(cyclohexanecarbonyl)-4-[(5-cyclopentyl-2-methoxypyridin-3-yl)methoxy]-5-phenylpyrrolidine-2-carboxylic acid] |
| 1000 to 10000 | 1000 to 10000 | +++ (≥350) | ++ (≥100 and <200) | COc1ncc(C2CC3CCC2C3)cc1CO[C@H]1[C@H](C(C)(C)C)[C@@H](C(=O)O)N(C(=O)C2CCCCC2)[C@H]1c1ccccc1 (stereo partly drawn) [Example 55, (2S,3R,4S,5S)-4-{[5-(bicyclo[2.2.1]heptan-2-yl)-2-methoxypyridin-3-yl]methoxy}-3-tert-butyl-1-(cyclohexanecarbonyl)-5-phenylpyrrolidine-2-carboxylic acid] |
| < 1000 | < 1000 | +++ (≥350) | ++ (≥100 and <200) | COc1ncc(C(C)(C)C)cc1CO[C@H]1[C@H](C(C)(C)C)[C@@H](C(=O)O)N(C(=O)C2CCCCC2)[C@H]1c1ccccc1 [Example 60, (2S,3R,4S,5S)-3-tert-butyl-4-[(5-tert-butyl-2-methoxypyridin-3-yl)methoxy]-1-(cyclohexanecarbonyl)-5-phenylpyrrolidine-2-carboxylic acid] |
| < 1000 | < 1000 | +++ (≥350) | +++ (≥200) | COc1ncc(C(C)(C)C)cc1CO[C@H]1[C@H](C(C)(C)C)[C@@H](C(=O)O)N(C(=O)[C@@H]2CCC[C@@H](OC)C2)[C@H]1c1ccccc1 [Example 61, (2S,3R,4S,5S)-3-tert-butyl-4-[(5-tert-butyl-2-methoxypyridin-3-yl)methoxy]-1-[(1R,3R)-3-methoxycyclohexane-1-carbonyl]-5-phenylpyrrolidine-2-carboxylic acid] |
| < 1000 | < 1000 | +++ (≥350) | ++ (≥100 and <200) | COc1ncc(C(C)(C)C)cc1CO[C@H]1[C@H](C(C)(C)C)[C@@H](C(=O)O)N(C(=O)C2CCCCC2)[C@H]1c1ccccc1F [Example 62, (2S,3R,4S,5S)-3-tert-butyl-4-[(5-tert-butyl-2-methoxypyridin-3-yl)methoxy]-1-(cyclohexanecarbonyl)-5-(2-fluorophenyl)pyrrolidine-2-carboxylic acid] |
| 1000 to 10000 | 1000 to 10000 | +++ (≥350) | ++ (≥100 and <200) | COc1ncc(C(C)(C)C)cc1CO[C@H]1[C@H](C(C)(C)C)[C@@H](C(=O)O)N(C(=O)OC(C)C)[C@H]1c1ccccc1 [Example 63, (2S,3R,4S,5S)-3-tert-butyl-4-[(5-tert-butyl-2-methoxypyridin-3-yl)methoxy]-5-phenyl-1-{[(propan-2-yl)oxy]carbonyl}pyrrolidine-2-carboxylic acid] |
| 1000 to 10000 | 1000 to 10000 | +++ (≥350) | ++ (≥100 and <200) | COc1ncc(C(F)(F)F)cc1CO[C@H]1[C@H](C(C)(C)C)[C@@H](C(=O)O)N(C(=O)OC(C)C)[C@H]1c1ccccc1 [Example 64, (2S,3R,4S,5S)-3-tert-butyl-4-{[2-methoxy-5-(trifluoromethyl)pyridin-3-yl]methoxy}-5-phenyl-1-{[(propan-2-yl)oxy]carbonyl}pyrrolidine-2-carboxylic acid] |
| < 1000 | < 1000 | +++ (≥350) | + (<100) | COc1ncc(-c2ccc(C)cc2F)cc1CO[C@H]1[C@H](C(C)(C)C)[C@@H](C(=O)O)N(C(=O)OC(C)C)[C@H]1c1ccccc1 [Example 65, (2S,3R,4S,5S)-3-tert-butyl-4-{[5-(2-fluoro-4-methylphenyl)-2-methoxypyridin-3-yl]methoxy}-5-phenyl-1-{[(propan-2-yl)oxy]carbonyl}pyrrolidine-2-carboxylic acid] |
| < 1000 | 1000 to 10000 | +++ (≥350) | + (<100) | COc1ncc(-c2ccccc2F)cc1CO[C@H]1[C@H](C(C)(C)C)[C@@H](C(=O)O)N(C(=O)OC(C)C)[C@H]1c1ccccc1 [Example 66, (2S,3R,4S,5S)-3-tert-butyl-4-{[5-(2-fluorophenyl)-2-methoxypyridin-3-yl]methoxy}-5-phenyl-1-{[(propan-2-yl)oxy]carbonyl}pyrrolidine-2-carboxylic acid] |
